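Exposure lasted 48 hours, with cells grown in 96-well plates and compounds tested at five concentrations. At the GI50, growth is halved. TGI is the concentration that stops growth completely.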 Where only a bound is given, the exact number is not on record here.

This passage reports TGI and GI50 results from PubChem BioAssay (NCI).

One test has as its system HT29 colon. Put plainly: inhibition of tumour cell growth, NCI panel, 48 h.
Regarding `O=C(O)/C=C(/C(=O)O)C12CCN3CC4=CCOC5CC(=O)NC1C5C4CC32` (configuration not stated), the TGI was over 100 µM.

`O=c1c2sc(=S)n(-c3ccc(F)cc3)c2ncn1/N=C/c1ccc(F)cc1F`: the TGI was over 100 µM.

Regarding `CS(=O)c1ncc2c(n1)-c1ccccc1OC2` (configuration not stated), the TGI was over 100 µM.

As for `COc1cccc2c1OC1(C=C2)Oc2ccccc2C(=O)N1C` (configuration not stated), the TGI is over 100 µM.

Consider `O=[N+]([O-])c1ccc(Oc2c(Cl)cc(S(=O)(=O)/N=C(\NO)Nc3ccc(Cl)cc3)cc2Cl)cc1`, for which the TGI worked out at 27.9 µM.

As for `O=c1[nH]c(=O)n(C2OC(CO)C(O)C2O)c2nc(-c3ccc(-c4ccccc4)cc3)cnc12` (configuration not stated), the TGI is over 100 µM.

Turning to `CN1CSC(=S)N(c2c3ccccc3nc3ccc(Br)cc23)C1`, the TGI came to 23.1 µM.

Take `O=C(O)c1ccccc1CC1Cc2ccccc2C1=O` (configuration not stated): the TGI is over 100 µM.

`CCCCCCOc1ccc(C(=O)NOC)cc1` displayed a TGI of over 100 µM.

As to `NS(=O)(=O)c1cc(Cl)c(NC(=S)NC(=O)Nc2ccc(Cl)c(Cl)c2)c(Cl)c1`, the TGI is over 100 µM.

Regarding `Cc1cn(C2CC(O)C(CO)O2)c(=O)[nH]c1=O` (configuration not stated), the TGI was over 5000 µM.

The compound `O=C1c2ccccc2-c2c1c(-c1ccc(F)cc1)nc1ccc3ccccc3c21` gave a TGI of over 100 µM.

In the case of `O=C(O)CCC(=O)OC1N=C(c2ccccc2Cl)c2cc([N+](=O)[O-])ccc2NC1=O` (configuration not stated), the TGI was over 100 µM.

For `CO[C@H]1/C=C(/C)CCC[C@H](C)[C@H](O)[C@@H](C)C(=O)C(C)(C)[C@@H](O)CC(=O)O[C@@H]1/C(C)=C/c1csc(C)n1`, the GI50 is under 0.01 µM and the TGI is 0.525 µM.

For the compound `COc1cccc2c(=O)oc(-c3ccc(C(C)(C)C)cc3)nc12`, the TGI was over 100 µM.

As to `COC(=O)C1CCC(=O)N1C(c1ccc(OC)cc1)c1ccc2c(c1)OCO2` (configuration not stated), the TGI was over 100 µM.

`CCN(CC)CCn1c(=O)c2cccnc2n2c3c(=O)n(C)c(=O)n(C)c3nc12` showed a TGI of over 100 µM.

Compound `CC(=N/N=C/c1ccccn1)/C(C)=N/N=C(C)/C(C)=N/N=C(C)/C(C)=N/N=C(C)/C(C)=N\N=C\c1ccccn1` displayed a TGI of over 100 µM.

In the case of `CC1=NN(c2cccc(Cl)c2)C2(C1=C/C=C/c1ccccc1)C(Cl)C(=O)N2c1nc2ccccc2s1` (configuration not stated), the TGI was over 100 µM.

Turning to `C=CCSc1nnc2cc(CN3CCCC3)c(-c3ccc(Cl)cc3)nn12`, the TGI is 32.5 µM.

`CN(C)c1ccc(C(=N/N=C2\C(=O)Nc3ccccc32)c2ccc(N(C)C)cc2)cc1` yielded a TGI of 4.45 µM.

The compound `CCN(CC)CCN(C(=Nc1ccccc1)N1CCOCC1)c1ccccc1` came in with a TGI of over 100 µM.

With `CC1(C)CCCC2OC2CCC(C)(C)C1=O` (configuration not stated), the TGI was over 100 µM.

In turn, `COP(=O)(/C=C/c1cc(C(=O)OCc2ccccc2)n(S(=O)(=O)c2ccccc2)c1)OC` had a TGI of over 100 µM.

In the case of `NC1=NCC(CN2CCOCC2)O1` (configuration not stated), the TGI was over 100 µM.

`CCC1(CC)C(=O)NN(C(=O)c2ccccc2)C1=O` gave a TGI of over 100 µM.

The subject of another test is SW-620 colon. Put plainly: inhibition of tumour cell growth, NCI panel, 48 h.
Compound `O=C(O)/C=C(/C(=O)O)C12CCN3CC4=CCOC5CC(=O)NC1C5C4CC32` (configuration not stated) registered a TGI of over 100 µM.

Consider `O=c1c2sc(=S)n(-c3ccc(F)cc3)c2ncn1/N=C/c1ccc(F)cc1F`, for which the TGI is over 100 µM.

With `CS(=O)c1ncc2c(n1)-c1ccccc1OC2` (configuration not stated), the TGI was over 100 µM.

Regarding `COc1cccc2c1OC1(C=C2)Oc2ccccc2C(=O)N1C` (configuration not stated), the TGI is over 100 µM.

In turn, `O=[N+]([O-])c1ccc(Oc2c(Cl)cc(S(=O)(=O)/N=C(\NO)Nc3ccc(Cl)cc3)cc2Cl)cc1` registered a TGI of 28.6 µM.

On to `O=c1[nH]c(=O)n(C2OC(CO)C(O)C2O)c2nc(-c3ccc(-c4ccccc4)cc3)cnc12` (configuration not stated), for which the TGI is over 100 µM.

In turn, `CN1CSC(=S)N(c2c3ccccc3nc3ccc(Br)cc23)C1` came in with a TGI of 23.8 µM.

`O=C(O)c1ccccc1CC1Cc2ccccc2C1=O` (configuration not stated) gave a TGI of over 100 µM.

For the compound `CCCCCCOc1ccc(C(=O)NOC)cc1`, the TGI was over 100 µM.

On to `NS(=O)(=O)c1cc(Cl)c(NC(=S)NC(=O)Nc2ccc(Cl)c(Cl)c2)c(Cl)c1`, for which the TGI was over 100 µM.

Turning to `Cc1cn(C2CC(O)C(CO)O2)c(=O)[nH]c1=O` (configuration not stated), the TGI is over 5000 µM.

Turning to `O=C1c2ccccc2-c2c1c(-c1ccc(F)cc1)nc1ccc3ccccc3c21`, the TGI is over 100 µM.

`O=C(O)CCC(=O)OC1N=C(c2ccccc2Cl)c2cc([N+](=O)[O-])ccc2NC1=O` (configuration not stated) registered a TGI of over 100 µM.

Consider `CO[C@H]1/C=C(/C)CCC[C@H](C)[C@H](O)[C@@H](C)C(=O)C(C)(C)[C@@H](O)CC(=O)O[C@@H]1/C(C)=C/c1csc(C)n1`, for which the GI50 was under 0.0148 µM and the TGI is over 100 µM.

Compound `COc1cccc2c(=O)oc(-c3ccc(C(C)(C)C)cc3)nc12` yielded a TGI of over 100 µM.

`COC(=O)C1CCC(=O)N1C(c1ccc(OC)cc1)c1ccc2c(c1)OCO2` (configuration not stated) gave a TGI of over 100 µM.

On to `CCN(CC)CCn1c(=O)c2cccnc2n2c3c(=O)n(C)c(=O)n(C)c3nc12`, for which the TGI was over 100 µM.

For the compound `CC(=N/N=C/c1ccccn1)/C(C)=N/N=C(C)/C(C)=N/N=C(C)/C(C)=N/N=C(C)/C(C)=N\N=C\c1ccccn1`, the TGI is over 100 µM.

Regarding `CC1=NN(c2cccc(Cl)c2)C2(C1=C/C=C/c1ccccc1)C(Cl)C(=O)N2c1nc2ccccc2s1` (configuration not stated), the TGI was over 96.1 µM.

As to `C=CCSc1nnc2cc(CN3CCCC3)c(-c3ccc(Cl)cc3)nn12`, the TGI amounted to 93 µM.

`CN(C)c1ccc(C(=N/N=C2\C(=O)Nc3ccccc32)c2ccc(N(C)C)cc2)cc1` came in with a TGI of over 100 µM.

In turn, `CCN(CC)CCN(C(=Nc1ccccc1)N1CCOCC1)c1ccccc1` gave a TGI of over 100 µM.

Consider `CC1(C)CCCC2OC2CCC(C)(C)C1=O` (configuration not stated), for which the TGI is over 100 µM.

In turn, `COP(=O)(/C=C/c1cc(C(=O)OCc2ccccc2)n(S(=O)(=O)c2ccccc2)c1)OC` displayed a TGI of over 100 µM.

Take `NC1=NCC(CN2CCOCC2)O1` (configuration not stated): the TGI was over 100 µM.

For the compound `CCC1(CC)C(=O)NN(C(=O)c2ccccc2)C1=O`, the TGI was over 100 µM.

In another test the test system is NCI-H23 lung. Put plainly: inhibition of tumour cell growth, NCI panel, 48 h.
As for `O=C(O)/C=C(/C(=O)O)C12CCN3CC4=CCOC5CC(=O)NC1C5C4CC32` (configuration not stated), the TGI was over 100 µM.

With `O=c1c2sc(=S)n(-c3ccc(F)cc3)c2ncn1/N=C/c1ccc(F)cc1F`, the TGI was over 100 µM.

The compound `CS(=O)c1ncc2c(n1)-c1ccccc1OC2` (configuration not stated) had a TGI of over 100 µM.

Compound `COc1cccc2c1OC1(C=C2)Oc2ccccc2C(=O)N1C` (configuration not stated) showed a TGI of over 100 µM.

On to `O=[N+]([O-])c1ccc(Oc2c(Cl)cc(S(=O)(=O)/N=C(\NO)Nc3ccc(Cl)cc3)cc2Cl)cc1`, for which the TGI came to 23.6 µM.

As to `O=c1[nH]c(=O)n(C2OC(CO)C(O)C2O)c2nc(-c3ccc(-c4ccccc4)cc3)cnc12` (configuration not stated), the TGI is over 100 µM.

Compound `CN1CSC(=S)N(c2c3ccccc3nc3ccc(Br)cc23)C1` had a TGI of 23.5 µM.

The compound `O=C(O)c1ccccc1CC1Cc2ccccc2C1=O` (configuration not stated) came in with a TGI of over 100 µM.

`CCCCCCOc1ccc(C(=O)NOC)cc1` gave a TGI of over 100 µM.

As to `NS(=O)(=O)c1cc(Cl)c(NC(=S)NC(=O)Nc2ccc(Cl)c(Cl)c2)c(Cl)c1`, the TGI was over 100 µM.

Compound `Cc1cn(C2CC(O)C(CO)O2)c(=O)[nH]c1=O` (configuration not stated) yielded a TGI of over 4530 µM.

For `O=C1c2ccccc2-c2c1c(-c1ccc(F)cc1)nc1ccc3ccccc3c21`, the TGI is over 100 µM.

In turn, `O=C(O)CCC(=O)OC1N=C(c2ccccc2Cl)c2cc([N+](=O)[O-])ccc2NC1=O` (configuration not stated) returned a TGI of over 100 µM.
